Data from patent publication US8394742B2, “Methods, compounds and compositions with genotype selective anticancer activity” (The Translation Genomics Research Institute, priority 2005, dated 2013).

Columns and labels:
DPC4 [1] = assay: DPC4 suppression by siRNA expression constructs, transient transfection; type: cell-based, human; conditions: MiaPaCa-2 (wild-type DPC4), 24 hours after transfection
Excerpt: The pMSCVproH vector was first used to create 6 DPC4 siRNA expression constructs, each of which targets a different region of the DPC4 transcript. Each of the oligonucleotide sequences was designed based on the criteria described by Tuschl and co-workers (65) and blasted against the GenBank database to confirm their specificity for DPC4.
Applicants first tested the ability of these constructs in suppressing DPC4 expression by performing transient transfections. Each construct was transiently transfected into the pancreatic cancer cell line MiaPaCa-2 (wild-type DPC4) using the Lipofectin Reagent (Invitrogen). DPC4 expression was examined 24 hours after transfection.

DPC4 [2] = assay: DPC4 suppression in HPDE6 clones after retrovirus infection (Western blot); type: cell-based, human
Excerpt: Because of its high suppression ability in transient transfections, the construct pMSCVpuroH_DPC4_oligo4 was chosen to generate a cell line with stable DPC4 suppression from HPDE6. To verify the specificity of Oligo4, Applicants created a construct with a mutated Oligo4, Oligo4mut10. The only difference between the two oligos is that the nucleotide residue at position 10 was changed from cytosine in Oligo4 to adenine in Oligo4mut10 (FIG. 11A). After retrovirus infection, HPDE6 cells were selected with puromycin at 3 μg/ml. Individual clones were isolated using serial dilution of the cells in 96-well plates. Ten individual clones for each construct were picked and tested for DPC4 expression at protein level by Western blot.
Eight passages after the infection, the expression of DPC4 in this clone was still 90% inhibited compared to the HPDE6 cells transfected with the empty vector (HPDE6-vector). This new cell line, which was named HPDE6-siDPC4, along with HPDE6-vector forms a set of isogenic cell lines for the DPC4 gene.

| Substance | DPC4 suppression (DPC4 [1]) | expression of DPC4 inhibited (DPC4 [2]; HPDE6 clone (HPDE6-siDPC4), eight passages after infection, vs HPDE6-vector) | DPC4 suppression (DPC4 [2]; HPDE6 individual clones, six out of 10, protein level by Western blot) |
| --- | --- | --- | --- |
| 5′AGCAAGGTTGCACATAGGC 3′ [Olig6] | about 80% | – | – |
| 5′GTAGGACTGCACCATACAC 3′ [Oligo4] | about 90% | 90% | about 90% |
